Measurements as given in patent US20240018145A1, “[…]-DEPENDENT EN[…] TREATING OR […]” (priority 2020, published 2024).
pEC50: −log10 of the molar value. Like-named read-outs stand apart in the source and are kept apart here.

System: FLU A (PR/8/34)
Experiment: Flu A Neuraminidase Antiviral Assay
Type: cell-based

| Compound | pEC50 | pEC50 (MDCK, 48 h) |
| --- | --- | --- |
| Cc1cc(=O)c(O)c2n1N1C(c3ccccc3)C(CC(F)(F)F)CCC1N(C)C2=O (single isomer, unassigned) [Compound 132B, 7-hydroxy-5,10-dimethyl-1-phenyl-2-(2,2,2-trifluoroethyl)-1,2,3,4,4a,5-hexahydrodipyrido[1,2-b:2′,1′-f][1,2,4]triazine-6,8-dione] | 7.67 | – |
| CN1C(=O)c2c(O)c(=O)ccn2N2C(c3cccc(F)c3)CCCC12 (single isomer, unassigned) [Compound 10A, 1-(3-fluorophenyl)-7-hydroxy-5-methyl-1,2,3,4,4a,5-hexahydrodipyrido[1,2-b:2′,1′-f][1,2,4]triazine-6,8-dione] | 5.79 | – |
| Cc1ccccc1C1C(c2ccc(F)c(F)c2)CCC2N(C)C(=O)c3c(O)c(=O)ccn3N12 (single isomer, unassigned) [Compound 91A, 2-(3,4-difluorophenyl)-7-hydroxy-5-methyl-1-(o-tolyl)-1,2,3,4,4a,5-hexahydrodipyrido[1,2-b:2′,1′-f][1,2,4]triazine-6,8-dione] | 6.31 | – |
| CC1CC2N(C)C(=O)c3c(O)c(=O)ccn3N2C(C)(c2ccccc2)C1 (single isomer, unassigned) [Compound 43A, 7-hydroxy-1,3,5-trimethyl-1-phenyl-1,2,3,4,4a,5-hexahydrodipyrido[1,2-b:2′,1′-f][1,2,4]triazine-6,8-dione] | 5.93 | – |
| CN1C(=O)c2c(O)c(=O)ccn2N2C(c3ccccc3Cl)C(CCO)CCC12 (centres unmarked) [Compound 66A, 1-(2-chlorophenyl)-7-hydroxy-2-(2-hydroxyethyl)-5-methyl-1,2,3,4,4a,5-hexahydrodipyrido[1,2-b:2′,1′-f][1,2,4]triazine-6,8-dione] | < 5.09 | – |
| CCCC1CCC2N(C)C(=O)c3c(O)c(=O)ccn3N2C1(C)c1ccccc1 (single isomer, unassigned) [Compound 33D, 7-hydroxy-1,5-dimethyl-1-phenyl-2-propyl-1,2,3,4,4a,5-hexahydrodipyrido[1,2-b:2′,1′-f][1,2,4]triazine-6,8-dione] | 8.64 | – |
| CCN1C(=O)c2c(O)c(=O)cc(COC)n2N2C(c3ccccc3)C(CC(F)(F)F)CCC12 (single isomer, unassigned) [Compound 131A, 5-ethyl-7-hydroxy-10-(methoxymethyl)-1-phenyl-2-(2,2,2-trifluoroethyl)-1,2,3,4,4a,5-hexahydrodipyrido[1,2-b:2′,1′-f][1,2,4]triazine-6,8-dione] | – | < 6.09 |
| CN1C(=O)c2c(O)c(=O)ccn2N2C(c3cccc(OC(F)F)c3)CCCC12 (single isomer, unassigned) [Compound 12B, 1-(3-(difluoromethoxy)phenyl)-7-hydroxy-5-methyl-1,2,3,4,4a,5-hexahydrodipyrido[1,2-b:2′,1′-f][1,2,4]triazine-6,8-dione] | < 5.09 | – |
| CC(C)CCO[C@@H]1CC[C@H]2N(C)C(=O)c3c(O)c(=O)ccn3N2[C@@H]1c1ccccc1 [Compound 161, (1R,2R,4aS)-7-hydroxy-2-(isopentyloxy)-5-methyl-1-phenyl-1,2,3,4,4a,5-hexahydrodipyrido[1,2-b:2′,1′-f][1,2,4]triazine-6,8-dione] | – | 6.92 |
| CCN1C(=O)c2c(O)c(=O)ccn2N2C(c3ccccc3C)C(CC(F)(F)F)CCC12 (single isomer, unassigned) [Compound 93B, 5-ethyl-7-hydroxy-1-(o-tolyl)-2-(2,2,2-trifluoroethyl)-1,2,3,4,4a,5-hexahydrodipyrido[1,2-b:2′,1′-f][1,2,4]triazine-6,8-dione] | 8.54 | – |
| CN1C(=O)c2c(O)c(=O)ccn2N2C1CCC1(CCC(F)(F)CC1)C2c1ccccc1 (single isomer, unassigned) [Compound 72B, 4,4-difluoro-7′-hydroxy-5′-methyl-1′-phenyl-3′,4′,4a′,5′-tetrahydro-1′H-spiro[cyclohexane-1,2′-dipyrido[1,2-b:2′,1′-f][1,2,4]triazine]-6′,8′-dione] | 8.42 | – |
| Cc1ccccc1C1C(CC(F)(F)F)CCC2(C)N(C)C(=O)c3c(O)c(=O)ccn3N12 (single isomer, unassigned) [Compound 87A, 7-hydroxy-4a,5-dimethyl-1-(o-tolyl)-2-(2,2,2-trifluoroethyl)-1,2,3,4,4a,5-hexahydrodipyrido[1,2-b:2′,1′-f][1,2,4]triazine-6,8-dione] | < 6.09 | – |
| CCCC1CCC2N(C)C(=O)c3c(O)c(=O)ccn3N2C1(C)c1ccccc1 (single isomer, unassigned) [Compound 33C, 7-hydroxy-1,5-dimethyl-1-phenyl-2-propyl-1,2,3,4,4a,5-hexahydrodipyrido[1,2-b:2′,1′-f][1,2,4]triazine-6,8-dione] | 5.88 | – |
| CN1C(=O)c2c(O)c(=O)ccn2N2C(c3ccccc3)C(c3ccc(F)c(F)c3F)CCC12 (single isomer, unassigned) [Compound 85D, 7-hydroxy-5-methyl-1-phenyl-2-(2,3,4-trifluorophenyl)-1,2,3,4,4a,5-hexahydrodipyrido[1,2-b:2′,1′-f][1,2,4]triazine-6,8-dione] | 6.66 | – |
| COc1c2n(ccc1=O)N1C(c3ccccc3)C(SC(C)C)CCC1N(C)C2=O (centres unmarked) [Compound 146B, 2-(isopropylthio)-7-methoxy-5-methyl-1-phenyl-1,2,3,4,4a,5-hexahydrodipyrido[1,2-b:2′,1′-f][1,2,4]triazine-6,8-dione] | 6.62 | – |
| CN1C(=O)c2c(O)c(=O)ccn2N2C(c3c(F)cccc3F)C(CC(F)(F)F)CCC12 (single isomer, unassigned) [Compound 123D, 1-(2,6-difluorophenyl)-7-hydroxy-5-methyl-2-(2,2,2-trifluoroethyl)-1,2,3,4,4a,5-hexahydrodipyrido[1,2-b:2′,1′-f][1,2,4] triazine-6,8-dione] | 7.57 | – |
| O=C1c2c(O)c(=O)ccn2N2C(c3ccccc3)CCCC2N1CC1CC1 (single isomer, unassigned) [Compound 56B, 5-(cyclopropylmethyl)-7-hydroxy-1-phenyl-1,2,3,4,4a,5-hexahydrodipyrido[1,2-b:2′,1′-f][1,2,4]triazine-6,8-dione] | 5.16 | – |
| COc1c2n(ccc1=O)N1C(c3ccccc3)C(SC(C)C)CCC1N(C)C2=O (centres unmarked) [Compound 146A, 2-(isopropylthio)-7-methoxy-5-methyl-1-phenyl-1,2,3,4,4a,5-hexahydrodipyrido[1,2-b:2′,1′-f][1,2,4]triazine-6,8-dione] | 7.73 | – |
| CN1C(=O)c2c(O)c(=O)ccn2N2C1CCCC2(C)c1ncccc1F (single isomer, unassigned) [Compound 27A, 1-(3-fluoropyridin-2-yl)-7-hydroxy-1,5-dimethyl-1,2,3,4,4a,5-hexahydrodipyrido[1,2-b:2′,1′-f][1,2,4]triazine-6,8-dione] | 6.07 | – |
| Cc1c(F)cccc1C1C(CC(F)(F)F)CCC2N(C)C(=O)c3c(O)c(=O)ccn3N12 (single isomer, unassigned) [Compound 80A, 1-(3-fluoro-2-methylphenyl)-7-hydroxy-5-methyl-2-(2,2,2-trifluoroethyl)-1,2,3,4,4a,5-hexahydrodipyrido[1,2-b:2′,1′-f][1,2,4]triazine-6,8-dione] | 7.22 | – |
| Cc1ccccc1C1N2C(CCC13CCC(F)(F)CC3)N(C)C(=O)c1c(O)c(=O)ccn12 (single isomer, unassigned) [Compound 70B, 4,4-difluoro-7′-hydroxy-5′-methyl-1′-(o-tolyl)-3′,4′,4a′,5′-tetrahydro-1′H-spiro[cyclohexane-1,2′dipyrido[1,2-b:2′,1′-f][1,2,4]triazine]-6′,8′-dione] | 8.70 | – |
| CCN1C(=O)c2c(O)c(=O)ccn2N2C1CCCC2(C)c1cccc(C)n1 (single isomer, unassigned) [Compound 53B, 5-ethyl-7-hydroxy-1-methyl-1-(6-methylpyridin-2-yl)-1,2,3,4,4a,5-hexahydrodipyrido[1,2-b:2′,1′-f][1,2,4]triazine-6,8-dione] | 8.08 | – |
| Cc1ccccc1C1C(CCC(F)F)CCC2N(C)C(=O)c3c(O)c(=O)ccn3N12 (single isomer, unassigned) [Compound 103B, 2-(3,3-difluoropropyl)-7-hydroxy-5-methyl-1-(o-tolyl)-1,2,3,4,4a,5-hexahydrodipyrido[1,2-b:2′,1′-f][1,2,4]triazine-6,8-dione] | 8.28 | – |
| CC(C)O[C@@H]1CC[C@H]2N(C)C(=O)c3c(O)c(=O)ccn3N2[C@@H]1c1ccccc1 [Compound 156, (1R,2R,4aS)-7-hydroxy-2-isopropoxy-5-methyl-1-phenyl-1,2,3,4,4a,5-hexahydrodipyrido[1,2-b:2′,1′-f][1,2,4]triazine-6,8-dione] | – | 7.42 |
| CN1C(=O)c2c(O)c(=O)ccn2N2C(c3ccccc3)C(CCC3CC3)CCC12 (single isomer, unassigned) [Compound 115D, 2-(2-cyclopropylethyl)-7-hydroxy-5-methyl-1-phenyl-1,2,3,4,4a,5-hexahydrodipyrido[1,2-b:2′,1′-f][1,2,4]triazine-6,8-dione] | 8.16 | – |
| CN1C(=O)c2c(O)c(=O)ccn2N2C(c3c(F)cccc3F)C(CC(F)(F)F)CCC12 (single isomer, unassigned) [Compound 123B, 1-(2,6-difluorophenyl)-7-hydroxy-5-methyl-2-(2,2,2-trifluoroethyl)-1,2,3,4,4a,5-hexahydrodipyrido[1,2-b:2′,1′-f][1,2,4] triazine-6,8-dione] | 8.38 | – |
| CC(=O)N(C)[C@H]1CC[C@@H](c2ccccc2)N2[C@@H]1N(C)C(=O)c1c(O)c(=O)ccn12 [Compound 145, N-((1S,4S,4aS)-7-hydroxy-5-methyl-6,8-dioxo-1-phenyl-1,2,3,4,4a,5,6,8-octahydrodipyrido[1,2-b:2′,1′-f][1,2,4]triazin-4-yl)-N-methylacetamide] | – | < 6.09 |
| CN1C(=O)c2c(O)c(=O)ccn2N2C1CCC(=O)C2(C)c1ccccc1 (centres unmarked) [Compound 138A, 7-hydroxy-1,5-dimethyl-1-phenyl-3,4,4a,5-tetrahydrodipyrido[1,2-b:2′,1′-f][1,2,4]triazine-2,6,8(1H)-trione] | 7.71 | – |
| CN1C(=O)c2c(O)c(=O)ccn2N2C(c3ccc(F)cc3)C(CC(F)(F)F)CCC12 (single isomer, unassigned) [Compound 122A, 1-(4-fluorophenyl)-7-hydroxy-5-methyl-2-(2,2,2-trifluoroethyl)-1,2,3,4,4a,5-hexahydrodipyrido[1,2-b:2′,1′-f][1,2,4]triazine-6,8-dione] | 6.46 | – |
